Test results taken from ChEMBL document CHEMBL5038624, “Construction and activity evaluation of novel dual-target (SE/CYP51) anti-fungal agents containing amide naphthyl structure” (Eur J Med Chem, 2022).
≈ marks a conversion by molar mass, not a printed value. Values belong to the compound of their own block, whether it stands above or below them. Calls of active or inactive are those of the source. The rule behind the calls is not given here.

What was measured:
[1] = tested on: Candida tropicalis; assay: Antifungal activity against Candida tropicalis ATCC 1369 assessed as reduction in fungal growth incubated for 72 hrs by CLSI protocol based broth microdilution method; assay type: functional
[2] = tested on: Pichia kudriavzevii; assay: Antifungal activity against Candida krusei ATCC 6258 assessed as reduction in fungal growth incubated for 72 hrs by CLSI protocol based broth microdilution method; assay type: functional
[3] = tested on: Nakaseomyces glabratus; assay: Antifungal activity against Candida glabrata ATCC 0001 assessed as reduction in fungal growth incubated for 72 hrs by CLSI protocol based broth microdilution method; assay type: functional
[4] = tested on: Candida albicans; assay: Antifungal activity against Candida albicans SC5314 assessed as reduction in fungal growth incubated for 72 hrs by CLSI protocol based broth microdilution method; assay type: functional
[5] = tested on: Aspergillus fumigatus; assay: Antifungal activity against Aspergillus fumigatus KM8001 assessed as reduction in fungal growth incubated for 72 hrs by CLSI protocol based broth microdilution method; assay type: functional
[6] = Inhibition of SE in Candida albicans ATCC SC5314 measured after 30 mins by HPLC analysis
[7] = Toxicity in mouse assessed as effect on blood urea nitrogen level; details: in vivo
[8] = tested on: Candida albicans; assay: Antifungal activity against Candida albicans strain 632 assessed as reduction in fungal growth incubated for 72 hrs by CLSI protocol based broth microdilution method; assay type: functional
[9] = tested on: Candida albicans; assay: Inhibition of SE/CYP51 in Candida albicans ATCC SC5314 assessed as lanosterol level incubated for 48 hrs by LC/MS analysis; set-up: scale not given: the % may be the effect or the level left
[10] = tested on: Candida albicans; assay: Inhibition of SE/CYP51 in Candida albicans ATCC SC5314 assessed as ergosterol level incubated for 48 hrs by LC/MS analysis; set-up: scale not given: the % may be the effect or the level left
[11] = tested on: Candida albicans; assay: Induction of apoptosis against Candida albicans ATCC SC5314 assessed as mild apoptotic cells measured after 48 hrs by Annexin V-FITC/propidium iodide staining based flow cytometry (Rvb =0.29 %); assay type: functional
[12] = tested on: Candida albicans; assay: Antifungal activity against Candida albicans ATCC SC5314 assessed as decrease in fungal cell density by fluorescence microscopy; assay type: functional, organism-based
[13] = Toxicity in mouse infected with Candida albicans ATCC SC5314 assessed as effect on liver at 4 mg/kg,ip administrated every 2 days for 14 days by hematoxylin-eosin staining based assay; assay type: organism-based; details: in vivo, 336 h, time 14 day
[14] = tested on: Candida albicans; assay: Antifungal activity against Candida albicans strain 17 assessed as reduction in fungal growth incubated for 72 hrs by CLSI protocol based broth microdilution method; assay type: functional
[15] = Toxicity in mouse assessed as effect on aspartate transaminase level; details: in vivo
[16] = tested on: Candida albicans; assay: Antifungal activity against Candida albicans strain CaR assessed as reduction in fungal growth incubated for 72 hrs by CLSI protocol based broth microdilution method; assay type: functional
[17] = Toxicity in mouse assessed as effect on alanine transaminase level; details: in vivo
[18] = tested on: Mus musculus; assay: Antifungal activity against Candida albicans ATCC SC5314 infected in mouse assessed as increase in body weight at 4 mg/kg,ip administrated every 2 days for 14 days; assay type: functional, organism-based; details: time 14.0 day
[19] = Toxicity in mouse infected with Candida albicans ATCC SC5314 assessed as effect on lung at 4 mg/kg,ip administrated every 2 days for 14 days by hematoxylin-eosin staining based assay; assay type: organism-based; details: in vivo, 336 h, time 14 day
[20] = tested on: Candida albicans; assay: Antifungal activity against Candida albicans strain 901 assessed as reduction in fungal growth incubated for 72 hrs by CLSI protocol based broth microdilution method; assay type: functional
[21] = tested on: Candida albicans; assay: Inhibition of SE/CYP51 in Candida albicans ATCC SC5314 assessed as unknown sterol level incubated for 48 hrs by LC/MS analysis; set-up: scale not given: the % may be the effect or the level left
[22] = Toxicity in mouse infected with Candida albicans ATCC SC5314 assessed as effect on kidney at 4 mg/kg,ip administrated every 2 days for 14 days by hematoxylin-eosin staining based assay; assay type: organism-based; details: in vivo, 336 h, time 14 day
[23] = tested on: Candida albicans; assay: Induction of apoptosis against Candida albicans ATCC SC5314 assessed as viable cells measured after 48 hrs by Annexin V-FITC/propidium iodide staining based flow cytometry (reference value: 80.78 %); assay type: functional
[24] = Toxicity in mouse infected with Candida albicans ATCC SC5314 assessed as effect on spleen at 4 mg/kg,ip administrated every 2 days for 14 days by hematoxylin-eosin staining based assay; assay type: organism-based; details: in vivo, 336 h, time 14 day
[25] = tested on: Candida albicans; assay: Inhibition of SE/CYP51 in Candida albicans ATCC SC5314 assessed as eburicol level incubated for 48 hrs by LC/MS analysis; set-up: scale not given: the % may be the effect or the level left
[26] = tested on: Candida albicans; assay: Antifungal activity against Candida albicans strain 904 assessed as reduction in fungal growth incubated for 72 hrs by CLSI protocol based broth microdilution method; assay type: functional
[27] = tested on: Candida albicans; assay: Induction of apoptosis against Candida albicans ATCC SC5314 assessed as necrotic cells measured after 48 hrs by Annexin V-FITC/propidium iodide staining based flow cytometry (reference value: 18.22 %); assay type: functional
[28] = target: Lanosterol 14-alpha demethylase (Candida albicans (strain SC5314 / ATCC MYA-2876) (Yeast), UniProt P10613); assay: Inhibition of CYP51 in Candida albicans ATCC SC5314 measured after 30 mins by HPLC analysis
Chain of Lanosterol 14-alpha demethylase (P10613 whole entry): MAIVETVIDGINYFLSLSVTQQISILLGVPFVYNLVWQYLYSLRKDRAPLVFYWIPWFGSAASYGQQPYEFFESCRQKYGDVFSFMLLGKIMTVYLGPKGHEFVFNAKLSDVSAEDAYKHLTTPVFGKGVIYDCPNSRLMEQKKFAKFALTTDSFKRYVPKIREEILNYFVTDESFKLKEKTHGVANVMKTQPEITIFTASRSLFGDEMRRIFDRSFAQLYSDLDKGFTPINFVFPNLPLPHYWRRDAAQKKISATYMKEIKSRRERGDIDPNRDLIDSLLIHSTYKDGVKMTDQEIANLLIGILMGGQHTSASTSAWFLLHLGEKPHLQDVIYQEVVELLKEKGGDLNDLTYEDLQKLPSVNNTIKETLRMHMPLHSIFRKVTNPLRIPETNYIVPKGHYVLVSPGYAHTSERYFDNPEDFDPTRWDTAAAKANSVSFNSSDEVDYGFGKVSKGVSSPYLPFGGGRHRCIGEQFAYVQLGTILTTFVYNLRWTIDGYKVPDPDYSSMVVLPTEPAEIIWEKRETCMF

[29] = Toxicity in mouse infected with Candida albicans ATCC SC5314 assessed as effect on heart at 4 mg/kg,ip administrated every 2 days for 14 days by hematoxylin-eosin staining based assay; assay type: organism-based; details: in vivo, 336 h, time 14 day
[30] = tested on: Candida albicans; assay: Antifungal activity against Candida albicans ATCC SC5314 infected in mouse assessed as decrease in fungal infection at 4 mg/kg,ip administrated every 2 days for 14 days; assay type: functional, organism-based; details: time 14.0 day
[31] = tested on: Candida albicans; assay: Antifungal activity against Candida albicans ATCC SC5314 infected in mouse assessed as reduction on endothelial fungal infection at 4 mg/kg,ip administrated every 2 days for 14 days by hematoxylin-eosin staining based assay; assay type: functional, organism-based; details: time 14.0 day
[32] = tested on: Candida albicans; assay: Inhibition of SE/CYP51 in Candida albicans ATCC SC5314 assessed as squalene level incubated for 48 hrs by LC/MS analysis; set-up: scale not given: the % may be the effect or the level left
[33] = tested on: Candida albicans; assay: Induction of apoptosis against Candida albicans ATCC SC5314 assessed as late apoptotic cells measured after 48 hrs by Annexin V-FITC/propidium iodide staining based flow cytometry (reference value: 0.71 %); assay type: functional

MIC50 [1]: 0.25 µg/mL (≈ 0.675 µM)
MIC50 [2]: 0.5 µg/mL (≈ 1.35 µM)
MIC50 [3]: 0.5 µg/mL (≈ 1.35 µM)
MIC50 [4]: 0.5 µg/mL (≈ 1.35 µM)
MIC50 [5]: > 8 µg/mL
SMILES: O=C(NC(Cn1cncn1)C(=O)c1ccccc1)c1cccc2ccccc12 (centres undefined)

MIC50 [1]: 0.5 µg/mL (≈ 1.26 µM)
MIC50 [2]: 1 µg/mL (≈ 2.53 µM)
MIC50 [3]: 0.5 µg/mL (≈ 1.26 µM)
MIC50 [4]: 0.25 µg/mL (≈ 0.632 µM)
MIC50 [5]: > 8 µg/mL
SMILES: O=C(/C=C/c1cccc2ccccc12)NC(Cn1ccnc1)C(=O)c1ccccc1 (centres undefined)

SMILES: c1ccc2ccccc2c1 [NAPHTHALENE]
MIC50 [4]: > 64 µg/mL

IC50 [6]: 650 nM
MIC50 [1]: 0.25 µg/mL (≈ 0.631 µM)
MIC50 [2]: 0.5 µg/mL (≈ 1.26 µM)
MIC50 [3]: 0.125 µg/mL (≈ 0.315 µM)
MIC50 [8]: 2 µg/mL (≈ 5.04 µM)
Activity [9]: 13.6%
Activity [10]: 16.4%
MIC50 [4]: 0.125 µg/mL (≈ 0.315 µM)
MIC50 [14]: 4 µg/mL (≈ 10.1 µM)
MIC50 [16]: 2 µg/mL (≈ 5.04 µM)
MIC50 [5]: 2 µg/mL (≈ 5.04 µM)
MIC50 [20]: 4 µg/mL (≈ 10.1 µM)
Activity [21]: 6.4%
Activity [25]: 34.7%
MIC50 [26]: 4 µg/mL (≈ 10.1 µM)
IC50 [28]: 323 nM
Activity [32]: 28.9%
SMILES: O=C(/C=C/c1ccc2ccccc2c1)NC(Cn1cncn1)C(=O)c1ccccc1 (centres undefined)
Activity [7]: 6.8 mmol/L
Activity [11]: 0.36%
Activity [12]: Active
Activity [13]: Non-Toxic
Activity [15]: 107.5 IU/L
Activity [17]: 96.5 IU/L
Activity [18]: Active
Activity [19]: Non-Toxic
Activity [22]: Non-Toxic
Activity [23]: 54.66%
Activity [24]: Non-Toxic
Activity [27]: 43.87%
Activity [29]: Non-Toxic
Activity [30]: Active
Activity [31]: Active
Activity [33]: 1.11%

MIC50 [1]: 0.5 µg/mL (≈ 1.46 µM)
MIC50 [2]: 0.5 µg/mL (≈ 1.46 µM)
MIC50 [3]: 0.25 µg/mL (≈ 0.732 µM)
MIC50 [4]: 0.5 µg/mL (≈ 1.46 µM)
MIC50 [5]: > 8 µg/mL
SMILES: O=C(NC(Cn1ccnc1)c1ccccc1)c1ccc2ccccc2c1 (centres undefined)

MIC50 [1]: 0.5 µg/mL (≈ 1.35 µM)
MIC50 [2]: 0.25 µg/mL (≈ 0.677 µM)
MIC50 [3]: 1 µg/mL (≈ 2.71 µM)
MIC50 [4]: 0.5 µg/mL (≈ 1.35 µM)
MIC50 [5]: 4 µg/mL (≈ 10.8 µM)
SMILES: O=C(NC(Cn1ccnc1)C(=O)c1ccccc1)c1cccc2ccccc12 (centres undefined)

MIC50 [1]: 0.5 µg/mL (≈ 1.23 µM)
MIC50 [2]: 0.5 µg/mL (≈ 1.23 µM)
MIC50 [3]: 0.25 µg/mL (≈ 0.614 µM)
MIC50 [4]: 0.5 µg/mL (≈ 1.23 µM)
MIC50 [5]: > 8 µg/mL
SMILES: O=C(/C=C/c1cccc2ccccc12)NC(C(=O)Nc1ccncc1)c1ccccc1 (centres undefined)
